From US7037644B1, “Means and methods for monitoring non-nucleoside reverse transcriptase inhibitor antiretroviral therapy and guiding therapeutic decisions in the treatment of HIV/AIDS” (ViroLogic, Inc., priority 1998, dated 2006) come the findings set out here.

The test system of experiment [1] is RTV-652, patient 98-652 (RT V108I). As to the kind of experiment: Phenotypic susceptibility assay (patient RTV). Type of experiment: cell-based, HIV-1. The conditions noted are these: patient RTV pool; below 1 = increased susceptibility. Here is the method:
The resistance test vectors containing a functional luciferase gene cassette were constructed and host cells were transfected with the resistance test vector DNA. The resistant test vectors contained patient-derived reverse transcriptase and protease sequences that were either susceptible or resistant to the antiretroviral agents, such as nucleoside reverse transcriptase inhibitors, non-nucleoside reverse transcriptase inhibitors and protease inhibitors. […] The IC50 values were determined by plotting percent drug inhibition vs. log10 drug concentration.
Host cells were seeded in 10-cm-diameter dishes and were transfected several days after plating with resistance test vector plasmid DNA and the envelope expression vector. […] HIV capsid protein (p24) levels in the harvested cell culture media were determined by an EIA method as described by the manufacturer (SIAC; Frederick, Md.). […] The inhibitory effect of the drug was determined using the following equation: % luciferase inhibition=1−(RLUluc [drug]÷RLUluc)×100 where RLUluc [drug] is the relative light unit of luciferase activity in infected cells in the presence of drug and RLUluc is the Relative Light Unit of luciferase activity in infected cells in the absence of drug. […]

Experiment [2] has as its system HIV reverse transcriptase with mutations at codon 230 (leucine) and 181 (cysteine). The experiment is described as follows: Phenotypic susceptibility assay. Type of experiment: cell-based. The following applies: mutations at codons 230 and 181. From the text:
In another specific embodiment, the invention provides for a method of evaluating the effectiveness of NNRTI antiretroviral therapy of a patient comprising (i) collecting a biological sample from an HIV-infected patient; and (ii) determining whether the biological sample comprises nucleic acid encoding HIV RT having a mutation at codon(s) 230 and/or 181. […] In another specific embodiment, the invention provides for a method of evaluating the effectiveness of NNRTI antiretroviral therapy of a patient comprising (i) collecting a biological sample from an HIV-infected patient; and (ii) determining whether the biological sample comprises nucleic acid encoding HIV RT having a mutation at codon 181. […] In another specific embodiment, the invention provides for a method of evaluating the effectiveness of NNRTI antiretroviral therapy of a patient comprising (i) collecting a biological sample from an HIV-infected patient; and (ii) determining whether the biological sample comprises nucleic acid encoding HIV RT having a mutation at codon 188. […]

Consider `CC(C)Nc1cccnc1N1CCN(C(=O)c2cc3cc(NS(C)(=O)=O)ccc3[nH]2)CC1` [delavirdine], for which, in experiment [1], the “change in susceptibility (fold, IC50)” value worked out at 0.97 fold. In addition, the “change in susceptibility” value in experiment [2] was “significant decrease”.

In the case of `Cc1ccnc2c1NC(=O)c1cccnc1N2C1CC1` [nevirapine], the “change in susceptibility (fold, IC50)” value in experiment [1] is 5 fold. Moreover, in experiment [2], the “change in susceptibility” value is reported as “significant decrease”.
